Measurements reported in US8765785B2, “Solifenacin salts” (Crystal Pharma, S.A.U., priority 2010, dated 2014).
Read-outs that look alike come from different tables or passages of the source.

What was measured:
Assay type in all cases: physicochemical
[1] = Stability of the solid salt on standing (colour, UV-HPLC method 2)
Method: HPLC Method 2: To Follow the End Points of the Reactions Performed and the Rest of the Impurities:
(§1) 10 g of solifenacin succinate (example 2) were dissolved in 15 mL of water. The solution was frozen by nitrogen liquid and was placed in the freeze-drying equipment at −60° C. under vacuum.

Solubility in water = assay: Solubility in water
Method: Therefore, when the procedure to obtain tablets comprising solifenacin fumarate is carried out by wet granulation, the presence of water is not such an important factor.
However, the low solubility of the solifenacin fumarate avoids this problem. The difference in solubility also makes it easier to obtain solid pharmaceutical compositions of solifenacin fumarate since the drying phase is reduced.

[2] = Conversion of the crystalline salt to the amorphous form (lyophilization, vacuum evaporation; PXRD, DSC); settings: for solid form after lyophilization of an aqueous solution: freeze-drying, -60° C. under vacuum, 15 hours, PXRD and DSC
Method: as §1
10 g of solifenacin fumarate (example 1) were dissolved in 600 ml of water at 60° C. The solution was frozen by nitrogen liquid and was placed in the freeze-drying equipment at −60° C. under vacuum.
5 g of solifenacin fumarate (example 1) was dissolved in 50 ml of methanol (1% of water) and evaporated under vacuum at 50° C.

[3] = Stability of tablets of solifenacin salts over 0, 3 and 6 months (Example 9); settings: for DESCRIPTION: film-coated tablets (Example 8); for course of the amount of F1 impurity: 6 month period
Method: To test the stability of solifenacin fumarate, tablets are prepared by wet granulation following the procedure disclosed in US 2008/039516, the contents of which are incorporated in their entirety. A specific example of preparing a tablet containing solifenacin fumarate is given in […] below.
25 parts by weight of Hypromellose (Pharmacoat 603) are dissolved and agitated in 130 parts of purified water with an air motor stirrer (IMA) to prepare a binder solution (at a concentration of 20.0% (w/v)). Then, 50 parts of solifenacin salt, 389 parts of lactose monohydrate (Granulac) and 128 parts of corn starch (C*PharmGel 03406) are mixed together (pre-mix) in a single pot granulator (IMA Zanchetta 3 L capacity).
The binder solution is sprayed over the pre-mix at room temperature with a flow rate of 60 ml/min, impeller speed of 300 rpm and chopper speed of 1500 rpm for wet granulation. After spraying, kneading takes place for 3 min with impeller speed of 300 rpm. After granulation, the granules are dried at a charged temperature of the jacket bowl of 80° C. under vacuum conditions, tilting movement of the bowl of 90° and intermittent speed (120 rpm) of the impeller for 120 seconds.
The granules are dried until a final moisture of 2.5%-1.0% has been reached. 6 parts of magnesium stearate are added to the dried granules for blending with a biconic mixer (SAR Labortecnic). Thereafter, the resulting mixture is compressed with a rotary tabletting machine (KILIAN IMA Pressima) with 6.0 mm punches at a compression pressure sufficient to achieve a hardness of the tablet of more than 50 N and a tablet weight of 60 mg.
The resulting tablets are coated in a non perforated pan (IMA, type HT25). Coating is performed with a solution prepared by dissolving 20 parts of Opadry II pink (Colorcon) in 200 parts of purified water using an air motor stirrer (IMA). Coating is achieved at a charge air temperature of 60-80° C., a pan rotation velocity of 6-13 rpm, and coating fluid feed rate of 16-40 ml/min for a 3.3% ratio of the component to the tablet weight, to obtain the film-coated tablet.
The stability of tablets formulated with solifenacin succinate and solifenacin fumarate, respectively, was tested in a side-by-side comparison. […] For both salts the amount of solifenacin was assayed by HPLC at 0, 3 and 6 months and the amount of “F1 impurity” was also measured. The results are provided in the tables below and are illustrated in FIGS. 9 and 10.

Compound	solid form after lyophilization of an aqueous solution [2]	DESCRIPTION ([3]; 3 MONTHS)	DESCRIPTION ([3]; 6 MONTHS)	DESCRIPTION ([3]; INITIAL)	ASSAY AMOUNT (amount of solifenacin by HPLC) ([3]; tablets, 3 MONTHS) [%]	CHROMATOGRAPHIC IMPURITY (F1 impurity) ([3]; tablets, 3 MONTHS) [%]	HARDNESS ([3]; tablets, 3 MONTHS) [N]	LOSS ON DRYING ([3]; tablets, 3 MONTHS) [%]	MEDIUM WEIGHT ([3]; tablets, 3 MONTHS) [mg]	ASSAY AMOUNT (amount of solifenacin by HPLC) ([3]; tablets, 6 MONTHS) [%]	CHROMATOGRAPHIC IMPURITY (F1 impurity) ([3]; tablets, 6 MONTHS) [%]	HARDNESS ([3]; tablets, 6 MONTHS) [N]	LOSS ON DRYING ([3]; tablets, 6 MONTHS) [%]	MEDIUM WEIGHT ([3]; tablets, 6 MONTHS) [mg]	course of the amount of F1 impurity ([3]; tablets)	ASSAY AMOUNT (amount of solifenacin by HPLC) ([3]; tablets, INITIAL) [%]	CHROMATOGRAPHIC IMPURITY (F1 impurity) ([3]; tablets, INITIAL) [%]	HARDNESS ([3]; tablets, INITIAL) [N]	LOSS ON DRYING ([3]; tablets, INITIAL) [%]	MEDIUM WEIGHT ([3]; tablets, INITIAL) [mg]	further results
O=C(O[C@H]1CN2CCC1CC2)N1CCc2ccccc2[C@@H]1c1ccccc1 [amorphous form of solifenacin succinate, solifenacin succinate]	–	–	–	–	–	–	–	–	–	–	–	–	–	–	–	–	–	–	–	–	amount of new impurity with relative retention time 0.93 ([1]; left to stand for ten days, HPLC method 2): 0.14%; time until the white solid turned colored ([1]; solid on standing): 2 to 3 days; colour change of the white solid ([1]; three days after freeze-drying): turned brown-colored
O=C(O[C@H]1CN2CCC1CC2)N1CCc2ccccc2[C@@H]1c1ccccc1 [solifenacin succinate]	quite easy to obtain the desired amorphous form	pink biconvex	pink biconvex	pink biconvex	96.8	<0.06	98	2.43	124.80	94.7	0.91	102	2.39	126.26	increases in the 6 month period	98.7	<0.05	98	2.40	125.57	solubility (Solubility in water): 727 mg/mL; colouring / instability on standing [1]: do not have this problem
solifenacin fumarate	crystalline form	pink biconvex	pink biconvex	pink biconvex	99.4	<0.05	73	2.01	124.21	99.6	<0.05	66	2.24	125.51	remains at the constant low level	98.2	<0.05	75	2.05	124.54	solubility in water (Solubility in water): 11.25 mg/mL; solid form after lyophilization of an aqueous solution ([2]; listed as fumarate salt): remains crystalline; solid form after evaporation under vacuum ([2]; methanol (1% of water), evaporated under vacuum at 50° C.): crystalline form; colouring / instability on standing ([1]; crystalline forms): do not have this problem; stability in tablets, conclusion in words ([3]; tablets, 6 month side-by-side comparison): much more stable than the succinate salt
